Read-outs that look alike come from different tables or passages of the source. One block for each compound: values may come before it.
What was measured:
[1] = Liver microsomal metabolic stability, mouse; assay type: in vitro ADME; conditions: 0.5 mg/mL microsomes, 1 μM compound, NADPH; for half-life at 1 μM: liver microsomes, read-out: Liver microsomal stability T1/2
Experimental: (§1) The reaction was stopped with tinidazole-containing acetonitrile at 0 min, 5 min, 10 min and 30 min, respectively. After vortexing for 10 min and centrifuging at 15,000 rmp for 10 min, 50 μL of the supernatant was injected into a 96-well plate. The metabolic stability of the compound was calculated by determining the relative reduction of the drug, calculated as half-life T1/2.

[2] = Liver microsomal metabolic stability, rat; assay type: in vitro ADME; conditions: 0.5 mg/mL microsomes, 1 μM compound, NADPH; for half-life at 1 μM: liver microsomes, read-out: Liver microsomal stability T1/2
Experimental: as §1

[3] = Liver microsomal metabolic stability, dog; assay type: in vitro ADME; conditions: 0.5 mg/mL microsomes, 1 μM compound, NADPH; for half-life at 1 μM: liver microsomes, read-out: Liver microsomal stability T1/2
Experimental: as §1

[4] = Liver microsomal metabolic stability, human; assay type: in vitro ADME; conditions: 0.5 mg/mL microsomes, 1 μM compound, NADPH; for half-life at 1 μM: liver microsomes, read-out: Liver microsomal stability T1/2
Experimental: as §1

ERK1/2 kinase = target: T1, ERK1/2 kinase; test: ERK1/2 kinase (Carna) inhibitory activity, Caliper mobility shift; assay type: biochemical; conditions: for IC50: numeric values, read-out: ERK½ IC50
T1 construct: fused on or other part: Carna's ERK products carry a GST tag by vendor knowledge
Experimental: (1) Preparation of 1×Kinase buffer; (2) preparation of compound concentration gradient: the initial test concentration of the tested compound was 10 μM, which was 3-fold diluted to 10 concentrations, and a duplicate test was conducted, and then the tested compound was diluted in a 96 well plate to a 100-fold final concentration of 10 different concentrations of solution. […] Log (inhibitor) vs. response—Variable slope of the analysis software GraphPad Prism 5 was used to fit the dose-effect curve to obtain the IC50 value of each compound on the enzyme activity.
2. […] (A<10 nM, 10 nM≤B<200 nM, C≥200 nM)

[5] = Liver microsomal stability, comparisons in words across species; assay type: in vitro ADME; conditions: for stability of different kinds of liver microsomes (in words): different species, versus the comparative compounds
Experimental: as §1

Colo-205 cells = test: Colo-205 tumor cell proliferation, CCK-8, 72 hours; assay type: cell-based; conditions: for IC50: 72 hours, CCK-8, numeric values, read-out: Colo-205 IC50; for cell proliferation inhibitory activity (in words): Colo-205
Experimental: 1. Test method: Colo-205 cells (ATCC) in logarithmic growth phase were inoculated into a 96-well culture plate at an appropriate density with 90 μL per well. After overnight culture, different concentrations of the compound were added and acted for 72 hours, and a solvent control group (negative control) was set. After the compound was acted on cells for 72 hours, the effect of the compound on cell proliferation was detected by the cell counting kit CCK-8 (Dojindo), and 10 μL of CCK-8 reagent was added to each well. After the plate was placed in a 37° C. incubator for 2 to 4 hours, a full-wavelength microplate reader SpectraMax 190 was adopted for obtaining the readings with a measured wavelength of 450 nm. […] The IC50 value was obtained by four-parameter regression with the software attached to the microplate reader.

CYP1A2 = target: T2, CYP1A2 (Homo sapiens, UniProt P05177); test: Direct inhibition test (DI test) in human liver microsomes, CYP1A2; conditions: microsomes
T2 sequence (P05177 1-516): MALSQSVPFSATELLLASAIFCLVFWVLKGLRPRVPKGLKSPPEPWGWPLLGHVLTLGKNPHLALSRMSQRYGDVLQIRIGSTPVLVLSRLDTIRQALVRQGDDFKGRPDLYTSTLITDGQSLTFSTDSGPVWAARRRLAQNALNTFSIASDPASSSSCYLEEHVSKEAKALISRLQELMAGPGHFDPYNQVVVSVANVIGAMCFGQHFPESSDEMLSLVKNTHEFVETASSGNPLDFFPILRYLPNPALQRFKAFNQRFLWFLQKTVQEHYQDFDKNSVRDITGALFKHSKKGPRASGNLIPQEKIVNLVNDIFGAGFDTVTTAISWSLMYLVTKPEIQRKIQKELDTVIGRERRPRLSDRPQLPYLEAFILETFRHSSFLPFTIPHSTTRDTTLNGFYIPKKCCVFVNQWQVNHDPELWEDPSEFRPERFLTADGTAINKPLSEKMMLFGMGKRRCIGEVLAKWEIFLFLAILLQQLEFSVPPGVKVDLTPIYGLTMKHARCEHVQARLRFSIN
Experimental: (2) Direct inhibition test (DI test): A system containing 100 μL of human liver microsomes (final concentration of 0.2 mg/mL) was subjected to a direct inhibition incubation, and the system contained NADPH (final concentration of 1 mM), 10 μM compound, positive inhibitor cocktail (10 μM ketoconazole, 10 μM quinidine, 100 μM sulfaphenazole, 10 μM α-naphthoflavone, 1,000 μM tranylcypromine), negative control (BPS of 0.1% DMSO), and mixed probe substrates (10 μM midazolam, 100 μM testosterone, 10 μM dextromethorphan, […], 100 μM phenacetin, 100 μM mephenytoin). After 20 minutes of incubation, the reaction was stopped. The relative activity of the enzyme was calculated by measuring the relative production of metabolites.

[6] = system: Colo-205 transplanted tumor; test: Growth inhibition of nude mice Colo-205 transplanted tumor; assay type: in vivo
Experimental: The tumor tissue in the vigorous growth phase was cut into about 1.5 mm^3 and inoculated subcutaneously in the right axilla of nude mice under sterile conditions. The diameter of subcutaneous transplanted tumors in nude mice was measured with a vernier caliper, and the mice were randomly divided into groups when the average tumor volume reached about 130 mm^3. The embodiment compounds (injection water containing 1% Tween 80 were configured to a desired concentration for later use) were orally administered daily at a given dose for three consecutive weeks, and the solvent control group was administered with the same amount of solvent. During the whole test, the diameter of transplanted tumor was measured twice a week, and the mice were weighed at the same time. The calculation formula of tumor volume (TV) is expressed as TV=1/2×a×b^2, wherein a and b represent length and width, respectively. The relative tumor volume (RTV) was calculated according to the measurement results, and the calculation formula is RTV=Vt/V0, wherein V0 is the tumor volume measured when administered in separate cages (i.e., d0), and Vt is the tumor volume at the time of each measurement.

[7] = In-vivo pharmacokinetic parameters in SD rats
Experimental: (§2) Six male SPF grade SD rats or Balb-c mice (Shanghai Sipple-Bikai Laboratory Animal) were divided into two groups, and the tested compounds were prepared into appropriate solutions or suspensions; one group was administered intravenously (with a dose of 1 mg/kg), and the other group was administered orally (with a dose of 5 mg/kg). Blood samples were collected by jugular vein puncture, and each sample was collected with a volume of about 0.2 mL/time point, and heparin sodium was used for anticoagulation. The time points of blood collection were listed below: 5, 15 and 30 min […], 1, 2, 4, 6, 8 and 24 h after administration; the collected blood samples were placed on ice and centrifuged to separate plasma (centrifugation conditions: 8,000 rpm, 6 min, 2 to 8° C.), and the collected plasma was stored at −80° C. before analysis. Plasma samples were analyzed by LC-MS/MS.
(§3) The pharmacokinetic parameters such as AUC0-t, AUC0-∞, MRT0-∞, Cmax, Tmax, T1/2 and Vd of the tested compounds and their mean values and standard deviations were calculated by the pharmacokinetic calculation software WinNonlin5.2 non-compartmental model according to the plasma concentration data. In addition, the bioavailability (F) was calculated by the following formula.
(§4) For samples with concentrations below the lower limit of quantitation, while pharmacokinetic parameter calculations were performed, samples sampled before Cmax was reached should be calculated as a zero value and samples sampled after Cmax was reached should be calculated as below limit of quantitation (BLQ).

[8] = In-vivo pharmacokinetic parameters in mice; design: species or system Balb-c mice
Experimental: as §2, §3, §4

[9] = male, rat, plasma, 1 mg/kg, IV, 1 mpk
[10] = male, rat, plasma, 5 mg/kg, PO, 5 mpk
[11] = male, Balb-c, mouse, plasma, IV, 1 mg/kg
[12] = male, Balb-c, mouse, plasma, PO, 5 mg/kg

Compound: COc1cc(F)cc([C@@H](CO)NC(=O)[C@@H](C)N2Cc3ccc(-c4nc(NC5CCOCC5)ncc4Cl)cc3C2=O)c1 [Comparative compound 5, (R)-2-(6-(5-Chloro-2-((tetrahydro-2H-pyran-4-yl)amino)pyrimidin-4-yl)-1-oxoisoindolin-2-yl)-N—((S)-1-(3-fluoro-5-methoxyphenyl)-2-hydroxyethyl)propanamide, reference compound]
half-life at 1 μM [1]: 15 min
half-life at 1 μM [2]: 3 min
half-life at 1 μM [3]: 41 min
half-life at 1 μM [4]: 3 min

Compound: C[C@H](C(=O)N[C@H](CO)c1cccc(Cl)c1)N1Cc2ccc(-c3nc(NC4CCOCC4)ncc3Cl)nc2C1=O [Embodiment 21]
IC50 (ERK1/2 kinase): 5.3 nM
stability of different kinds of liver microsomes (in words) [5]: significant advantages
half-life at 1 μM [1]: 234 min
half-life at 1 μM [2]: 13 min
IC50 (Colo-205 cells; Homo sapiens, COLO 205): 90.9 nM
half-life at 1 μM [3]: 78 min
half-life at 1 μM [4]: 62 min

Compound: COc1cc(F)cc([C@@H](CO)NC(=O)[C@@H](C)N2Cc3ccc(-c4nc(NC5CCOCC5)ncc4Cl)c(F)c3C2=O)c1 [Embodiment 33]
enzyme inhibitory activity (in words) (ERK1/2 kinase): extremely strong enzyme inhibitory activity
IC50 (ERK1/2 kinase): 0.9 nM
stability in liver microsomes (in words) ([5]; mouse, rat and human, compared with comparative compound 5): significantly improved
Liver microsomal stability T1/2 [1]: 10 min
IC50 (CYP1A2): > 10000 nM
Liver microsomal stability T1/2 [2]: 17 min
IC50 (Colo-205 cells): 14.1 nM
cell proliferation inhibitory activity (in words) (Colo-205 cells): strong cell proliferation inhibitory activity
Liver microsomal stability T1/2 [3]: 51 min
Liver microsomal stability T1/2 [4]: 18 min

Continued, in another order:

IC50 (ERK1/2 kinase): 0.8 nM
stability of different kinds of liver microsomes (in words) [5]: significant advantages
Liver microsomal stability T1/2 [1]: 12 min
Liver microsomal stability T1/2 [2]: 19 min
IC50 (Colo-205 cells): 34.3 nM
Liver microsomal stability T1/2 [3]: 75 min
Liver microsomal stability T1/2 [4]: 18 min
Compound: C[C@H](C(=O)N[C@H](CO)c1cccc(Cl)c1)N1Cc2ccc(-c3nc(NC4CCOCC4)ncc3Cl)c(F)c2C1=O [Embodiment 34]
cell proliferation inhibitory activity (in words) (Colo-205 cells): strong cell proliferation inhibitory activity

IC50 (ERK1/2 kinase): < 1 nM
stability of different kinds of liver microsomes (in words) [5]: significant advantages
Liver microsomal stability T1/2 [1]: 12 min
F ([7]; PO 5 mpk vs IV 1 mpk): 17%
AUC(0-inf) [7, 9]: 0.538 µM·h
AUC(0-t) [7, 9]: 0.536 µM·h
MRT inf [7, 9]: 18 min
clearance [7, 9]: 54 mL/min/kg
half-life [7, 9]: 48 min
Vd ([7]; male, rat, plasma, 1 mg/kg, IV, 1 mpk, read-out: Vss): 0.8 L/kg
AUC(0-inf) [7, 10]: 0.452 µM·h
AUC(0-t) [7, 10]: 0.446 µM·h
Cmax [7, 10]: 396 nM
Tmax [7, 10]: 18 min
half-life [7, 10]: 66 min
Liver microsomal stability T1/2 [2]: 14 min
IC50 (Colo-205 cells): 4.4 nM
F ([8]; PO 5 mg/kg vs IV 1 mg/kg): 54%
AUC(0-inf) [8, 11]: 0.586 µM·h
AUC(0-t) [8, 11]: 0.583 µM·h
MRT inf [8, 11]: 18 min
clearance [8, 11]: 50 mL/min/kg
half-life [8, 11]: 48 min
Vd ([8]; male, Balb-c, mouse, plasma, IV, 1 mg/kg, read-out: Vss): 0.9 L/kg
AUC(0-inf) [8, 12]: 1.58 µM·h
AUC(0-t) [8, 12]: 1.57 µM·h
Cmax [8, 12]: 1680 nM
Tmax [8, 12]: 18 min
half-life [8, 12]: 66 min
Liver microsomal stability T1/2 [3]: 27 min
Liver microsomal stability T1/2 [4]: 11 min
Compound: C[C@H](C(=O)N[C@H](CO)c1cccc(Cl)c1)N1Cc2ccc(-c3nc(NC4CCOCC4)ncc3F)c(F)c2C1=O [Embodiment 37]
T/C ([6]; 50 mg/kg, qdx21, po): 28.3%
Initial weight (D0) ([6]; 50 mg/kg, qdx21, po, D0): 23.3 g
Terminal weight (D21) ([6]; 50 mg/kg, qdx21, po, D21): 24.5 g
Initial tumor volume ([6]; 50 mg/kg, qdx21, po, initial): 95 ± 19 mm^3
Terminal tumor volume ([6]; 50 mg/kg, qdx21, po, terminal): 285 ± 137 mm^3
effect on the tumor weight (in words) ([6]; dose of 50 mg/kg or 25 mg/kg): no significant effect on the tumor weight
tumor growth of Colo-205 transplanted tumor nude mice (in words) ([6]; dose of 50 mg/kg or 25 mg/kg): significantly inhibited the tumor growth
cell proliferation inhibitory activity (in words) (Colo-205 cells): strong cell proliferation inhibitory activity

stability in liver microsomes (in words) ([5]; rat, dog and human, compared with the comparative compound 1): significantly improved
stability in liver microsomes (in words) ([5]; rat, dog and human, compared with the comparative compounds 1 and 3): significantly improved
Liver microsomal stability T1/2 [2]: 18 min
IC50 (Colo-205 cells): 88.6 nM
IC50 (Colo-205 cells; Homo sapiens, COLO 205): 354 nM
Liver microsomal stability T1/2 [3]: 403 min
Liver microsomal stability T1/2 [4]: 15 min
Compound: C[C@H](C(=O)N[C@H](CO)c1cccc(Cl)c1)N1Cc2ccc(-c3ccnc(Nc4ccnn4C)c3)cc2C1=O [compound 2, (R)—N—((S)-1-(3-Chlorophenyl)-2-hydroxyethyl)-2-(6-(2-((1-methyl-1H-pyrazol-5-yl)amino)pyridin-4-yl)-1-oxoisoindolin-2-yl)propanamide, reference compound]
enzyme inhibitory activity (in words) (ERK1/2 kinase): extremely strong enzyme inhibitory activity
cell proliferation inhibitory activity (in words) (Colo-205 cells): strong cell proliferation inhibitory activity

Source: patent US20230312564A1, “AROMATIC RING-LACTAM COMPOUND, PREPARATION METHOD THEREFOR AND USE THEREOF” (SHANGHAI RINGENE BIOPHARMA CO., LTD., priority 2020, published 2023)
